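At the GI50, growth is halved. At the TGI there is no net growth.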
How the values were obtained:
Assay in all cases: DTP human tumour cell line panel, 384-well format
SK-MEL-2 melanoma = tested on: SK-MEL-2 melanoma
LOX IMVI melanoma = tested on: LOX IMVI melanoma
BT-549 breast = tested on: BT-549 breast
CAKI-1 renal = tested on: CAKI-1 renal
CCRF-CEM leukemia = tested on: CCRF-CEM leukemia
OVCAR-5 ovarian = tested on: OVCAR-5 ovarian
HCC-2998 colon = tested on: HCC-2998 colon
HOP-62 NSCLC = tested on: HOP-62 NSCLC
OVCAR-8 ovarian = tested on: OVCAR-8 ovarian
EKVX NSCLC = tested on: EKVX NSCLC
U251 glioblastoma = tested on: U251 glioblastoma
PC-3 prostate = tested on: PC-3 prostate
SNB-19 CNS = tested on: SNB-19 CNS
HL-60(TB) leukemia = tested on: HL-60(TB) leukemia
SF-539 CNS = tested on: SF-539 CNS
HT29 colon = tested on: HT29 colon
NCI-H226 lung = tested on: NCI-H226 lung
IGROV1 ovarian = tested on: IGROV1 ovarian
ACHN renal = tested on: ACHN renal
NCI-H522 lung = tested on: NCI-H522 lung
786-0 renal = tested on: 786-0 renal
HS 578T breast = tested on: HS 578T breast
SN12C renal = tested on: SN12C renal
MALME-3M melanoma = tested on: MALME-3M melanoma
MDA-MB-435 melanoma = tested on: MDA-MB-435 melanoma
M14 melanoma = tested on: M14 melanoma
OVCAR-4 ovarian = tested on: OVCAR-4 ovarian
K-562 leukemia = tested on: K-562 leukemia
SK-MEL-5 melanoma = tested on: SK-MEL-5 melanoma
TK-10 renal = tested on: TK-10 renal

Work on `Nc1nc(Cl)nc2c1ncn2C1OC(CO)C(O)C1F` (stereo unspecified) yielded a GI50 (SK-MEL-2 melanoma) of 304 nM, a TGI (SK-MEL-2 melanoma) of 697 nM and a GI50 (LOX IMVI melanoma) of 306 nM. For the same molecule, the TGI (LOX IMVI melanoma) was 880 nM, the GI50 (BT-549 breast) was 77.4 nM and the TGI (BT-549 breast) was 483 nM. For the same molecule, the GI50 (CAKI-1 renal) was 91.5 nM, the GI50 (CCRF-CEM leukemia) was 15.7 nM and the TGI (CCRF-CEM leukemia) was 29.7 nM. The GI50 (OVCAR-5 ovarian) was 515 nM, the TGI (OVCAR-5 ovarian) was over 100000 nM and the GI50 (HCC-2998 colon) was 34.6 nM. For the same molecule, the TGI (HCC-2998 colon) was over 100000 nM, the GI50 (HOP-62 NSCLC) was 41.9 nM and the TGI (HOP-62 NSCLC) was 150 nM. The GI50 (OVCAR-8 ovarian) was 31.5 nM, the TGI (OVCAR-8 ovarian) was over 100000 nM and the GI50 (EKVX NSCLC) was 914 nM. The GI50 (U251 glioblastoma) was 259 nM, the TGI (U251 glioblastoma) was 2700 nM and the GI50 (PC-3 prostate) was over 20900 nM. For the same molecule, the TGI (PC-3 prostate) was over 100000 nM, the GI50 (SNB-19 CNS) was 72.6 nM and the GI50 (HL-60(TB) leukemia) was 20.5 nM. It also gave a TGI (HL-60(TB) leukemia) of 36.8 nM, a GI50 (SF-539 CNS) of 612 nM and a TGI (SF-539 CNS) of 1820 nM. The GI50 (HT29 colon) was 510 nM, the TGI (HT29 colon) was over 100000 nM and the GI50 (NCI-H226 lung) was 775 nM. The TGI (NCI-H226 lung) was 3580 nM, the GI50 (IGROV1 ovarian) was 419 nM and the TGI (IGROV1 ovarian) was over 100000 nM. It also gave a GI50 (ACHN renal) of 122 nM, a TGI (ACHN renal) of 427 nM and a GI50 (NCI-H522 lung) of 165 nM. For the same molecule, the TGI (NCI-H522 lung) was over 28900 nM, the GI50 ([…]-0 renal) was 97.5 nM and the GI50 (HS 578T breast) was 430 nM. For the same molecule, the TGI (HS 578T breast) was over 22800 nM, the GI50 (SN12C renal) was 56.1 nM and the TGI (SN12C renal) was 401 nM. For the same molecule, the GI50 (MALME-3M melanoma) was 375 nM, the TGI (MALME-3M melanoma) was over 100000 nM and the GI50 (MDA-MB-435 melanoma) was 261 nM. It also gave a TGI (MDA-MB-435 melanoma) of over 100000 nM, a GI50 (M14 melanoma) of 74.8 nM and a TGI (M14 melanoma) of 290 nM. It also gave a GI50 (OVCAR-4 ovarian) of over 100000 nM, a TGI (OVCAR-4 ovarian) of over 100000 nM and a GI50 (K-562 leukemia) of 80.4 nM. It also gave a TGI (K-562 leukemia) of over 100000 nM, a GI50 (SK-MEL-5 melanoma) of 61.6 nM and a TGI (SK-MEL-5 melanoma) of 160 nM. The GI50 (TK-10 renal) was 532 nM and the TGI (TK-10 renal) was over 100000 nM.
